In the NIST ThermoML archive (doi:10.1021/je300628e):
± gives the expanded uncertainty stated by the source.

Tests used:
[1] = 101 kPa, Liquid; for viscosity: Concentric cylinders viscometry; for mass density: Vibrating tube method
[2] = wn = mass fraction of the nth substance listed; conditions: 101 kPa, Liquid; for viscosity: Concentric cylinders viscometry; for mass density: Vibrating tube method

CCCCn1cc[n+](C)c1.N#CN=C=[N-] [1-butyl-3-methylimidazolium dicyanamide]
[1]
Conditions | mass density [kg/m3] | viscosity [mPa·s]
303.15 K | 1055.1 ± 1 | 23.92 ± 0.27
313.15 K | 1049.3 ± 0.9 | 17.12 ± 0.2
333.15 K | 1037.1 ± 0.9 | 10.49 ± 0.15
353.15 K | 1024.2 ± 0.9 | 6.773 ± 0.12
363.15 K | 1019.3 ± 0.9 | 5.523 ± 0.12

CCCCn1cc[n+](C)c1.F[B-](F)(F)F [1-butyl-3-methylimidazolium tetrafluoroborate]
[1]
Conditions | mass density [kg/m3] | viscosity [mPa·s]
303.15 K | 1191.3 ± 1.3 | 71.63 ± 0.8
313.15 K | 1182.3 ± 1.2 | 46.96 ± 0.5
333.15 K | 1166.7 ± 1.2 | 23.8 ± 0.27
353.15 K | 1154.9 ± 1.2 | 13.94 ± 0.18
363.15 K | 1139.4 ± 1.1 | 11.32 ± 0.16

CCn1cc[n+](C)c1.O=S(=O)([O-])C(F)(F)F [1-ethyl-3-methylimidazolium trifluoromethanesulfonate]
[1]
Conditions | mass density [kg/m3] | viscosity [mPa·s]
303.15 K | 1381.8 ± 1.7 | 36.14 ± 0.39
313.15 K | 1371.7 ± 1.7 | 26.65 ± 0.3
333.15 K | 1350.9 ± 1.6 | 16.45 ± 0.2
353.15 K | 1338.7 ± 1.6 | 12.17 ± 0.16
363.15 K | 1326 ± 1.6 | 11.14 ± 0.15

CN(CCO)CCO [N-methyldiethanolamine]
[1]
Conditions | mass density [kg/m3] | viscosity [mPa·s]
303.15 K | 1034.7 ± 0.5 | 58.62 ± 0.47
313.15 K | 1027.1 ± 0.5 | 37.68 ± 0.32
333.15 K | 1013 ± 0.5 | 15.26 ± 0.16
353.15 K | 996.3 ± 0.5 | 6.756 ± 0.11
363.15 K | 993.9 ± 0.5 | 4.539 ± 0.11

CN(CCO)CCO [N-methyldiethanolamine] + O
[2]
Conditions | mass density, 303.15 K [kg/m3] | mass density, 313.15 K [kg/m3] | mass density, 333.15 K [kg/m3] | mass density, 353.15 K [kg/m3] | mass density, 363.15 K [kg/m3] | viscosity, 303.15 K [mPa·s] | viscosity, 313.15 K [mPa·s] | viscosity, 333.15 K [mPa·s] | viscosity, 353.15 K [mPa·s] | viscosity, 363.15 K [mPa·s]
w1 = 0.234 | 1018.7 ± 6 | 1014.1 ± 6 | 1003 ± 6 | 987.2 ± 6 | 981.3 ± 6 | 2.285 ± 0.1 | 1.612 ± 0.1 | 1.418 ± 0.1 | 1.121 ± 0.1 | 1.112 ± 0.1
w1 = 0.459 | 1018.3 ± 6 | 1011 ± 6 | 1005.2 ± 6 | 989.6 ± 6 | 971.8 ± 6 | 2.85 ± 0.33 | 2.238 ± 0.23 | 1.621 ± 0.13 | 1.485 ± 0.11 | 1.337 ± 0.1
